According to article PMC6370856, “Peptidyl prolyl cis/trans isomerase activity on the cell surface correlates with extracellular matrix development” (Communications Biology, 2019):

Tests used:
[1] = tested on: collagen hydrogel (Type I, rat-tail); test: Step-strain rheological measurement, self-healing of collagen hydrogel
Description: Another important feature of the dynamic ECMs is their self-healing property, which can be tested using a step-strain rheological measurement. A strong strain is applied to liquify the materials, and the recovery of storage modulus is followed (self-healing) (Fig. 1b). Collagen hydrogel can only partially recover its storage modulus after the first cycle. The rate and extent of recovery were unchanged over the following cycles.
(§1) To minimize sample evaporation at 37 °C, a tissue paper wet in HEPEs buffer (10 mM, pH 7.8) was placed inside the H-PTD chamber to increase the humidity. […] The cone and plate were treated with plasma for 5 min to increase the hydrophilicity of the metal surface.

fibrin hydrogel = test: Stiffness (storage modulus) of fibrin gel by rheometer; settings: for Storage Modulus Mean: fibrin gel
Description: as §1
Fibrin gel: Fibrinogen (Shanghai Laishi Xuezhipin Limited Company) was dissolved in PBS with a concentration of 22.2 mg mL^−1 overnight at room temperature with gentle shaking and aliquoted in protein low-binding tubes (45 µL per tube). […] Fifty microliters of thrombin (4 EU mL^−1 in PBS with 1.8 mM CaCl2) was added and pipetted up and down ten times. Then, it was transferred to the rheometer plate for measurement. […] For each condition, two independent experiments were performed (Fig. 1a and Supplementary Fig. 1).

## CypA: recombinant cyclophilin A, a PPIase, expressed in E. coli
[1]
  stiffness and extent of recovery in the self-healing process of collagen hydrogel: remarkably enhanced
Fibrin hydrogel; 1 µM CypA
  effect on storage modulus of fibrin hydrogel: remarkably enhanced
Fibrin hydrogel; 1 micromolar CypA, 3 min
  Storage Modulus Mean: 56.652 Pa
Fibrin hydrogel; 1 micromolar CypA, 3.5 min
  Storage Modulus Mean: 58.3965 Pa
Fibrin hydrogel; 1 micromolar CypA, 4 min
  Storage Modulus Mean: 59.006 Pa
Fibrin hydrogel; 1 micromolar CypA, 4.5 min
  Storage Modulus Mean: 60.5775 Pa
Fibrin hydrogel; 1 micromolar CypA, 5 min
  Storage Modulus Mean: 62.605 Pa
Fibrin hydrogel; 1 micromolar CypA, 6 min
  Storage Modulus Mean: 64.745 Pa
Fibrin hydrogel; 1 micromolar CypA, 6.5 min
  Storage Modulus Mean: 65.763 Pa
Fibrin hydrogel; 1 micromolar CypA, 7 min
  Storage Modulus Mean: 66.7405 Pa
Fibrin hydrogel; 1 micromolar CypA, 7.5 min
  Storage Modulus Mean: 67.652 Pa
Fibrin hydrogel; 1 micromolar CypA, 8 min
  Storage Modulus Mean: 68.8195 Pa
Fibrin hydrogel; 1 micromolar CypA, 8.5 min
  Storage Modulus Mean: 69.705 Pa
Fibrin hydrogel; 1 micromolar CypA, 9 min
  Storage Modulus Mean: 70.143 Pa
Fibrin hydrogel; 1 micromolar CypA, 9.5 min
  Storage Modulus Mean: 71.2125 Pa
Fibrin hydrogel; 1 micromolar CypA, 10 min
  Storage Modulus Mean: 72.402 Pa
Fibrin hydrogel; 1 micromolar CypA, 11 min
  Storage Modulus Mean: 74.113 Pa
Fibrin hydrogel; 1 micromolar CypA, 12 min
  Storage Modulus Mean: 75.428 Pa
Fibrin hydrogel; 1 micromolar CypA, 12.5 min
  Storage Modulus Mean: 75.9135 Pa
Fibrin hydrogel; 1 micromolar CypA, 13 min
  Storage Modulus Mean: 76.613 Pa
Fibrin hydrogel; 1 micromolar CypA, 14 min
  Storage Modulus Mean: 77.9915 Pa
Fibrin hydrogel; 1 micromolar CypA, 15 min
  Storage Modulus Mean: 78.877 Pa
Fibrin hydrogel; 3 micromolar CypA, 3 min
  Storage Modulus Mean: 56.9022 Pa
Fibrin hydrogel; 3 micromolar CypA, 3.5 min
  Storage Modulus Mean: 58.8285 Pa
Fibrin hydrogel; 3 micromolar CypA, 4 min
  Storage Modulus Mean: 60.4529 Pa
Fibrin hydrogel; 3 micromolar CypA, 5 min
  Storage Modulus Mean: 63.4816 Pa
Fibrin hydrogel; 3 micromolar CypA, 6 min
  Storage Modulus Mean: 65.1141 Pa
Fibrin hydrogel; 3 micromolar CypA, 6.5 min
  Storage Modulus Mean: 66.9921 Pa
Fibrin hydrogel; 3 micromolar CypA, 7 min
  Storage Modulus Mean: 68.0463 Pa
Fibrin hydrogel; 3 micromolar CypA, 7.5 min
  Storage Modulus Mean: 69.6441 Pa
Fibrin hydrogel; 3 micromolar CypA, 8 min
  Storage Modulus Mean: 70.5045 Pa
Fibrin hydrogel; 3 micromolar CypA, 8.5 min
  Storage Modulus Mean: 71.5921 Pa
Fibrin hydrogel; 3 micromolar CypA, 9 min
  Storage Modulus Mean: 72.9987 Pa
Fibrin hydrogel; 3 micromolar CypA, 9.5 min
  Storage Modulus Mean: 73.9279 Pa
Fibrin hydrogel; 3 micromolar CypA, 10 min
  Storage Modulus Mean: 75.4268 Pa
Fibrin hydrogel; 3 micromolar CypA, 11 min
  Storage Modulus Mean: 76.965 Pa
Fibrin hydrogel; 3 micromolar CypA, 12 min
  Storage Modulus Mean: 78.6581 Pa
Fibrin hydrogel; 3 micromolar CypA, 12.5 min
  Storage Modulus Mean: 79.6539 Pa
Fibrin hydrogel; 3 micromolar CypA, 13 min
  Storage Modulus Mean: 80.8472 Pa
Fibrin hydrogel; 3 micromolar CypA, 14 min
  Storage Modulus Mean: 81.859 Pa
Fibrin hydrogel; 3 micromolar CypA, 15 min
  Storage Modulus Mean: 84.0373 Pa
Fibrin hydrogel; 9 micromolar CypA, 3 min
  Storage Modulus Mean: 62.185 Pa
Fibrin hydrogel; 9 micromolar CypA, 3.5 min
  Storage Modulus Mean: 63.846 Pa
Fibrin hydrogel; 9 micromolar CypA, 4 min
  Storage Modulus Mean: 65.982 Pa
Fibrin hydrogel; 9 micromolar CypA, 4.5 min
  Storage Modulus Mean: 68.114 Pa
Fibrin hydrogel; 9 micromolar CypA, 5 min
  Storage Modulus Mean: 69.837 Pa
Fibrin hydrogel; 9 micromolar CypA, 6 min
  Storage Modulus Mean: 72.811 Pa
Fibrin hydrogel; 9 micromolar CypA, 6.5 min
  Storage Modulus Mean: 74.461 Pa
Fibrin hydrogel; 9 micromolar CypA, 7 min
  Storage Modulus Mean: 75.619 Pa
Fibrin hydrogel; 9 micromolar CypA, 7.5 min
  Storage Modulus Mean: 77.1405 Pa
Fibrin hydrogel; 9 micromolar CypA, 8 min
  Storage Modulus Mean: 78.5045 Pa
Fibrin hydrogel; 9 micromolar CypA, 8.5 min
  Storage Modulus Mean: 79.81 Pa
Fibrin hydrogel; 9 micromolar CypA, 9 min
  Storage Modulus Mean: 80.8145 Pa
Fibrin hydrogel; 9 micromolar CypA, 9.5 min
  Storage Modulus Mean: 82.609 Pa
Fibrin hydrogel; 9 micromolar CypA, 10 min
  Storage Modulus Mean: 83.584 Pa
Fibrin hydrogel; 9 micromolar CypA, 11 min
  Storage Modulus Mean: 86.0735 Pa
Fibrin hydrogel; 9 micromolar CypA, 12 min
  Storage Modulus Mean: 88.4775 Pa
Fibrin hydrogel; 9 micromolar CypA, 12.5 min
  Storage Modulus Mean: 89.3905 Pa
Fibrin hydrogel; 9 micromolar CypA, 13 min
  Storage Modulus Mean: 90.5025 Pa
Fibrin hydrogel; 9 micromolar CypA, 14 min
  Storage Modulus Mean: 91.758 Pa
Fibrin hydrogel; 9 micromolar CypA, 15 min
  Storage Modulus Mean: 94.897 Pa
Fibrin hydrogel; 9 micromolar CypA, 15.5 min
  Storage Modulus Mean: 96.242 Pa
Fibrin hydrogel; 20 micromolar CypA, 3 min
  Storage Modulus Mean: 48.845 Pa
Fibrin hydrogel; 20 micromolar CypA, 3.5 min
  Storage Modulus Mean: 49.5435 Pa
Fibrin hydrogel; 20 micromolar CypA, 4 min
  Storage Modulus Mean: 50.3955 Pa
Fibrin hydrogel; 20 micromolar CypA, 4.5 min
  Storage Modulus Mean: 50.963 Pa
Fibrin hydrogel; 20 micromolar CypA, 5 min
  Storage Modulus Mean: 51.714 Pa
Fibrin hydrogel; 20 micromolar CypA, 6 min
  Storage Modulus Mean: 52.522 Pa
Fibrin hydrogel; 20 micromolar CypA, 6.5 min
  Storage Modulus Mean: 53.309 Pa
Fibrin hydrogel; 20 micromolar CypA, 7 min
  Storage Modulus Mean: 53.9025 Pa
Fibrin hydrogel; 20 micromolar CypA, 7.5 min
  Storage Modulus Mean: 54.3695 Pa
Fibrin hydrogel; 20 micromolar CypA, 8 min
  Storage Modulus Mean: 54.713 Pa
Fibrin hydrogel; 20 micromolar CypA, 8.5 min
  Storage Modulus Mean: 55.308 Pa
Fibrin hydrogel; 20 micromolar CypA, 9 min
  Storage Modulus Mean: 55.0885 Pa
Fibrin hydrogel; 20 micromolar CypA, 9.5 min
  Storage Modulus Mean: 56.131 Pa
Fibrin hydrogel; 20 micromolar CypA, 10 min
  Storage Modulus Mean: 56.586 Pa
Fibrin hydrogel; 20 micromolar CypA, 11 min
  Storage Modulus Mean: 57.3845 Pa
Fibrin hydrogel; 20 micromolar CypA, 12 min
  Storage Modulus Mean: 58.3285 Pa
Fibrin hydrogel; 20 micromolar CypA, 12.5 min
  Storage Modulus Mean: 58.642 Pa
Fibrin hydrogel; 20 micromolar CypA, 14 min
  Storage Modulus Mean: 59.019 Pa
Fibrin hydrogel; 20 micromolar CypA, 15 min
  Storage Modulus Mean: 59.9075 Pa
Fibrin hydrogel; 20 micromolar CypA, 15.5 min
  Storage Modulus Mean: 60.0285 Pa
